Biological target: T1, Drosophila MSRA (Drosophila melanogaster, UniProt P08761, C232S/C246S)
T1 sequence (P08761 2-246 C232S/C246S): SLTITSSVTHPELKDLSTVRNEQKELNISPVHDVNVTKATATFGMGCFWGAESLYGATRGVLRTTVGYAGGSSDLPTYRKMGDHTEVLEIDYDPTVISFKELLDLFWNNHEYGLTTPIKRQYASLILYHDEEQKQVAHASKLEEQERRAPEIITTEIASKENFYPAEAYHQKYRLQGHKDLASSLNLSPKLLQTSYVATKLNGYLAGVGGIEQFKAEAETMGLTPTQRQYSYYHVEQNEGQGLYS
Assay: intact protein mass spectrometry after incubation with MetO
Format: biochemical
Settings: no dithiothreitol; oxidation of active site cysteine

C[S+]([O-])CC[C@H](N)C(=O)O (stereo partly drawn) [MetO, L-Methionine Sulfoxide]
intact protein mass spectrometry after incubation with MetO: when the C232S/C246S mutant was incubated with MetO, we observed that the mass

— PMC7409368 (Free radical biology & medicine, 2018)
